Results taken from ChEMBL document CHEMBL4270506, “Recent advances in drug discovery of phototherapeutic non-porphyrinic anticancer agents” (Eur J Med Chem, 2017).

What was measured:
[1] = Dark toxicity in human HeLa cells assessed as reduction in cell viability by MTT assay; format: cell-based
[2] = system: MDA-MB-231; test: Phototoxicity in human MDA-MB-231 cells assessed as reduction in cell viability pre-incubated for 1 hr before photo-irradiation with 700 mW-630 nm laser light for 15 mins by MTT assay; format: functional, cell-based; conditions: MDA-MB-231, light or radiation study
[3] = Dark toxicity in mouse L5178Y cells assessed as cell viability at 0.5 uM; format: cell-based; conditions: read-out: Activity
[4] = Dark toxicity in human SCC131 cells assessed as reduction in cell viability by MTT assay; format: cell-based
[5] = system: SiHa; test: Phototoxicity in human SiHa cells assessed as reduction in cell viability pre-incubated for 1 hr before photo-irradiation with 700 mW-630 nm laser light for 15 mins by MTT assay; format: functional, cell-based; conditions: light or radiation study
[6] = system: HeLa; test: Phototoxicity in human HeLa cells assessed as reduction in cell viability pre-incubated for 1 hr before photo-irradiation with 700 mW-630 nm laser light for 15 mins by MTT assay; format: functional, cell-based; conditions: light or radiation study
[7] = system: MCF7; test: Phototoxicity in human MCF7 cells assessed as reduction in cell viability pre-incubated for 1 hr before photo-irradiation with 700 mW-630 nm laser light for 15 mins by MTT assay; format: functional, cell-based; conditions: MCF7, light or radiation study
[8] = Dark toxicity in human HCT116 cells assessed as reduction in cell viability by MTT assay; format: cell-based, HCT-116
[9] = Dark toxicity in human MDA-MB-231 cells assessed as reduction in cell viability by MTT assay; format: cell-based
[10] = system: MCF-10A; test: Phototoxicity in human MCF10A cells assessed as reduction in cell viability pre-incubated for 1 hr before photo-irradiation with 700 mW-630 nm laser light for 15 mins by MTT assay; format: cell-based; conditions: light or radiation study
[11] = system: HCT-116; test: Phototoxicity in human HCT116 cells assessed as reduction in cell viability pre-incubated for 1 hr before photo-irradiation with 700 mW-630 nm laser light for 15 mins by MTT assay; format: functional, cell-based; conditions: HCT-116, light or radiation study
[12] = Dark toxicity in Chinese hamster AS52 cells assessed as cloning efficiency at 1 uM; format: cell-based, Cricetulus griseus
[13] = system: MIA PaCa-2; test: Phototoxicity in human MIAPaCa2 cells assessed as reduction in cell viability pre-incubated for 1 hr before photo-irradiation with 700 mW-630 nm laser light for 15 mins by MTT assay; format: functional, cell-based; conditions: MIA PaCa-2, light or radiation study
[14] = Phototoxicity in Chinese hamster AS52 cells assessed as cloning efficiency at 1 uM under irradiation by visible light at 337.5 kJ/m2 between 400 to 800 nm; format: functional, Cricetulus griseus
[15] = Dark toxicity in human MIAPaCa2 cells assessed as reduction in cell viability by MTT assay; format: cell-based, MIA PaCa-2
[16] = Phototoxicity in human SCC131 cells assessed as reduction in cell viability pre-incubated for 1 hr before photo-irradiation with 700 mW-630 nm laser light for 15 mins by MTT assay; format: functional, cell-based; conditions: SCC131, light or radiation study
[17] = Dark toxicity in human SiHa cells assessed as reduction in cell viability by MTT assay; format: cell-based
[18] = system: L5178Y; test: Phototoxicity in mouse L5178Y cells assessed as cell viability at 0.5 uM under irradiation by visible light at 337.5 kJ/m2 between 400 to 800 nm; format: functional; conditions: light or radiation study, read-out: Activity
[19] = Dark toxicity in human MCF10A cells assessed as reduction in cell viability by MTT assay; format: cell-based, MCF-10A
[20] = Phototoxicity in human SCC172 cells assessed as reduction in cell viability pre-incubated for 1 hr before photo-irradiation with 700 mW-630 nm laser light for 15 mins by MTT assay; format: functional, cell-based; conditions: SCC172, light or radiation study
[21] = Dark toxicity in human MCF7 cells assessed as reduction in cell viability by MTT assay; format: cell-based
[22] = Dark toxicity in human SCC172 cells assessed as reduction in cell viability by MTT assay; format: cell-based
[23] = system: HeLa; test: Phototoxicity in human HeLa cells assessed as reduction in cell viability in presence of irradiation with 625 nm laser light by MTT assay; format: functional, cell-based; conditions: light or radiation study
[24] = Dark toxicity in human PBMC assessed as reduction in cell viability after 24 hrs by MTT assay; format: cell-based
[25] = system: PBMC; test: Phototoxicity in human PBMC assessed as reduction in cell viability under irradiation with >500 nm light after 24 hrs by MTT assay; format: cell-based; conditions: light or radiation study
[26] = Dark toxicity in human C8161 cells assessed as reduction in cell viability after 24 hrs by MTT assay; format: cell-based
[27] = Phototoxicity in human C8161 cells assessed as reduction in cell viability under irradiation with >500 nm light after 24 hrs by MTT assay; format: functional, cell-based; conditions: C8161, light or radiation study
[28] = system: B16-F10; test: Phototoxicity in mouse B16F10 cells assessed as reduction in cell viability under irradiation with >500 nm light after 24 hrs by MTT assay; format: functional, cell-based; conditions: B16-F10, light or radiation study
[29] = Dark toxicity in mouse B16F10 cells assessed as reduction in cell viability after 24 hrs by MTT assay; format: cell-based, B16-F10
[30] = system: PBMC; test: Phototoxicity in human PBMC assessed as reduction in cell viability at 20 uM under irradiation with >500 nm light after 24 hrs by MTT assay; format: cell-based
[31] = Phototoxicity in human keloid fibroblasts assessed as cell viability at 2 to 8 umol/L pre-incubated for 4 hrs before 0.5 J.cm2 UVA irradiation by MTT assay; format: functional
[32] = system: HeLa; test: Phototoxicity in human HeLa cells assessed as reduction in cell viability in presence of irradiation with white light; format: functional, cell-based; conditions: light or radiation study
[33] = system: HeLa; test: Phototoxicity in human HeLa cells assessed as reduction in cell viability in presence of irradiation with 700 to 1000 nm near-infrared light; format: functional, cell-based; conditions: light or radiation study
[34] = system: MCF7; test: Phototoxicity in wild type human MCF7 cells assessed as inhibition of cell growth at 1 uM pre-incubated for 4 hrs before photoirradiation with 430 nm light and measured after 24 hrs post irradiation by MTT assay; format: functional; conditions: MCF7, light or radiation study, read-out: GI
[35] = Dark toxicity in human MCF7/DX cells assessed as inhibition of cell growth at 1 uM after 24 hrs by MTT assay; format: cell-based; conditions: read-out: GI
[36] = Phototoxicity in human MCF7/DX cells assessed as inhibition of cell growth at 1 uM pre-incubated for 4 hrs before photoirradiation with 430 nm light and measured after 24 hrs post irradiation by MTT assay; format: functional; conditions: light or radiation study, read-out: GI
[37] = Dark toxicity in wild type human MCF7 cells assessed as inhibition of cell growth at 1 uM after 24 hrs by MTT assay; format: cell-based; conditions: read-out: GI
[38] = system: MCF7; test: Phototoxicity in wild type human MCF7 cells assessed as inhibition of cell growth at 1 uM pre-incubated for 24 hrs before photoirradiation with 430 nm light and measured after 24 hrs post irradiation by MTT assay; format: functional; conditions: MCF7, light or radiation study, read-out: GI
[39] = Phototoxicity in human MCF7/DX cells assessed as inhibition of cell growth at 1 uM pre-incubated for 24 hrs before photoirradiation with 430 nm light and measured after 24 hrs post irradiation by MTT assay; format: functional; conditions: light or radiation study, read-out: GI
[40] = system: MCF7; test: Phototoxicity in wild type human MCF7 cells assessed as inhibition of cell growth at 1 uM pre-incubated for 24 hrs before photoirradiation with 630 nm light and measured after 24 hrs post irradiation by MTT assay; format: functional; conditions: MCF7, light or radiation study, read-out: GI
[41] = Phototoxicity in human MCF7/DX cells assessed as inhibition of cell growth at 1 uM pre-incubated for 4 hrs before photoirradiation with 530 to 550 nm light and measured after 24 hrs post irradiation by MTT assay; format: functional; conditions: light or radiation study, read-out: GI
[42] = Phototoxicity in human MCF7/DX cells assessed as inhibition of cell growth at 1 uM pre-incubated for 24 hrs before photoirradiation with 630 nm light and measured after 24 hrs post irradiation by MTT assay; format: functional; conditions: light or radiation study, read-out: GI
[43] = system: MCF7; test: Phototoxicity in wild type human MCF7 cells assessed as inhibition of cell growth at 1 uM pre-incubated for 4 hrs before photoirradiation with 530 to 550 nm light and measured after 24 hrs post irradiation by MTT assay; format: functional; conditions: MCF7, light or radiation study, read-out: GI
[44] = system: MCF7; test: Phototoxicity in wild type human MCF7 cells assessed as inhibition of cell growth at 1 uM pre-incubated for 24 hrs before photoirradiation with 530 to 550 nm light and measured after 24 hrs post irradiation by MTT assay; format: functional; conditions: MCF7, light or radiation study, read-out: GI
[45] = Phototoxicity in human MCF7/DX cells assessed as inhibition of cell growth at 1 uM pre-incubated for 4 hrs before photoirradiation with 630 nm light and measured after 24 hrs post irradiation by MTT assay; format: functional; conditions: light or radiation study, read-out: GI
[46] = Phototoxicity in human MCF7/DX cells assessed as inhibition of cell growth at 1 uM pre-incubated for 24 hrs before photoirradiation with 530 to 550 nm light and measured after 24 hrs post irradiation by MTT assay; format: functional; conditions: light or radiation study, read-out: GI
[47] = system: MCF7; test: Phototoxicity in wild type human MCF7 cells assessed as inhibition of cell growth at 1 uM pre-incubated for 4 hrs before photoirradiation with 630 nm light and measured after 24 hrs post irradiation by MTT assay; format: functional; conditions: MCF7, light or radiation study, read-out: GI

## O=C1C(I)=C(O)C(=C2C(=O)C(c3c(O)c(I)c(O)c(I)c3O)=C2O)C(O)=C1I
[1]
  IC50: > 50 µM
[2]
  IC50: 19.8 µM
[3]
  viability at 0.5 µM: 90%
[4]
  IC50: > 50 µM
[5]
  IC50: 33.7 µM
[6]
  IC50: 36 µM
[7]
  IC50: 25.3 µM
[8]
  IC50: > 50 µM
[9]
  IC50: > 50 µM
[10]
  IC50: 44.7 µM
[11]
  IC50: 26 µM
[12]
  Activity: 90%
[13]
  IC50: 28.3 µM
[14]
  Activity: 10%
[15]
  IC50: > 50 µM
[16]
  IC50: 30.7 µM
[17]
  IC50: > 50 µM
[18]
  viability at 0.5 µM: < 10%
[19]
  IC50: > 50 µM
[20]
  IC50: 34.7 µM
[21]
  IC50: > 50 µM
[22]
  IC50: > 50 µM

## COC(=O)c1ccc(C2=C3C(Br)=c4sc(-c5ccc(Br)s5)cc4=[N+]3[B-](F)(F)n3c2cc2sc(-c4ccc(Br)s4)cc23)cc1
[23]
  IC50: 7.12 µM

## CCN1/C(=C\C=C\c2sc3cc4c(cc3[n+]2CC)sc(/C=C/C=C2\N(CC)c3ccccc3C2(C)C)[n+]4CC)C(C)(C)c2ccccc21
[24]
  IC50 at 24 h: 20 µM
[25]
  IC50: 20 µM
[26]
  IC50 at 24 h: 20 µM
[27]
  IC50: 5 µM
[28]
  IC50: 5 µM
[29]
  IC50 at 24 h: 20 µM
[30]
  Activity: <= 70%

## Nc1ccc(-c2nc3ccccc3s2)cc1
[31]
  Activity: 50%

## Nc1ccc(-c2ccc3nc4ccc(-c5ccc(N)cc5)cc4[s+]c3c2)cc1
[32]
  EC50: 6 µM
[33]
  EC50: 8 µM

## CCN1C(=O)/C(=C\C=C2/SCCN2C)OC1=S
[34]
  inhibition of growth at 1 µM: > 40%
[35]
  inhibition at 24 h, 1 µM: 10%
[36]
  inhibition of growth at 1 µM: 40%
[37]
  inhibition at 24 h, 1 µM: 20%
[38]
  inhibition of growth at 1 µM: 20%
[39]
  inhibition of growth at 1 µM: 10%

## CCN1/C(=C/C(C)=C/c2sc3ccccc3[n+]2CC)Sc2ccccc21
[40]
  inhibition of growth at 1 µM: 80%
[35]
  inhibition at 24 h, 1 µM: 10%
[41]
  inhibition of growth at 1 µM: 20%
[42]
  inhibition of growth at 1 µM: > 80%
[43]
  inhibition of growth at 1 µM: 60%
[44]
  inhibition of growth at 1 µM: 60%
[37]
  inhibition at 24 h, 1 µM: 20%
[45]
  inhibition of growth at 1 µM: 60%
[46]
  inhibition of growth at 1 µM: 20%
[47]
  inhibition of growth at 1 µM: 50%
